Measured values from the supplement of paper PMC10883282.
Structures can show the parent of a compound that is named as a salt.

How the values were obtained:
Assay in all cases: relative viability vs DMSO control (72 h) (fraction); higher = more viable cells
A204 = system: A204
In short: (§1)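 Plates held 72 h at 37 °C and 5% CO2 contained sarcoma cell lines seeded in 384-well format to reach 80–90% confluence, plus 2.5 µl of serially diluted compound added after 24 h. Source plate concentrations ran from 10 mM to 0.0002 mM, with 0.1% DMSO as vehicle and a 5 µM positive control. Percent growth from ATPLite readings, averaged over up to triplicate wells, gave relative viability. Values were rescaled with 1 as full and 0 as none.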

MES-SA = system: MES-SA
In short: as §1

SK-ES-1 = system: SK-ES-1
In short: as §1

SW982 = system: SW982
In short: as §1

VA-ES-BJ = system: VA-ES-BJ
In short: as §1

Cn1cc(C2=C(c3cn(C4CCN(Cc5ccccn5)CC4)c4ccccc34)C(=O)NC2=O)c2ccccc21 [Enzastaurin]
relative viability
Settings | A204 | MES-SA | SK-ES-1 | SW982 | VA-ES-BJ
0.00017 µM | 1.07 | 1.01 | 1.09 | 1.06 | 1.08
0.00051 µM | 1.13 | 0.997 | 1.06 | 1.06 | 1.12
0.00152 µM | 1.13 | 0.994 | 1.11 | 1.08 | 1.11
0.00457 µM | 1.12 | 0.99 | 1.08 | 1.08 | 1.09
0.01372 µM | 1.11 | 0.959 | 1.11 | 1.08 | 1.07
0.04115 µM | 1.07 | 1.003 | 1.08 | 1.069 | 1.06
0.1235 µM | 1.07 | 0.942 | 1.08 | 1.05 | 1.06
0.3704 µM | 1.1 | 0.97 | 1.04 | 1.06 | 1.08
1.111 µM | 1.09 | 0.952 | 1.11 | 1.012 | 1.11
3.333 µM | 1.08 | 0.964 | 1.1 | 0.903 | 1.19
10 µM | 0.906 | 0.659 | 0.914 | 0.679 | 1.21

C=C1C[C@@H]2CC[C@@]34C[C@H]5O[C@H]6[C@@H](O3)[C@H]3O[C@H](CC[C@@H]3O[C@H]6[C@H]5O4)CC(=O)C[C@@H]3[C@@H](OC)[C@@H](C[C@H](O)CN)O[C@H]3C[C@H]3O[C@@H](CC[C@@H]1O2)C[C@@H](C)C3=C [Eribulin Mesylate]
relative viability
Settings | A204 | MES-SA | SK-ES-1 | SW982 | VA-ES-BJ
1.37 pM | 1.12 | 1.01 | 1.05 | 1.061 | 1.06
4.1 pM | 1.12 | 0.996 | 1.06 | 1.08 | 1
12.3 pM | 1.09 | 0.973 | 0.861 | 1.05 | 0.901
37 pM | 0.68 | 0.425 | 0.0486 | 1.04 | 0.72
0.00011 µM | 0.596 | 0.472 | 0.0799 | 0.801 | 0.474
0.00033 µM | 0.475 | 0.311 | 0.0234 | 0.523 | 0.391
0.001 µM | 0.414 | 0.254 | 0.0171 | 0.41 | 0.437
0.003 µM | 0.329 | 0.178 | 0.0147 | 0.336 | 0.359
0.009 µM | 0.2412 | 0.122 | 0.0166 | 0.307 | 0.295
0.027 µM | 0.224 | 0.109 | 0.019 | 0.309 | 0.244
460 fM | 1.11 | 0.996 | 1.07 | 1.02 | 1.08

O=S(=O)(c1cccc2cnccc12)N1CCCNCC1 [Fasudil]
relative viability
Settings | 0.00051 µM | 0.00152 µM | 0.00457 µM | 0.01372 µM | 0.04115 µM | 0.1235 µM | 0.3704 µM | 1.111 µM | 3.333 µM | 10 µM
A204 | 0.98 | 1.03 | 1.02 | 1.02 | 1.01 | 0.987 | 1.01 | 0.991 | 0.973 | 0.891
MES-SA | 0.955 | 0.967 | 0.96 | 0.967 | 0.992 | 0.967 | 0.994 | 0.987 | 0.941 | 0.895
SK-ES-1 | 0.955 | 0.964 | 0.963 | 0.967 | 0.996 | 0.989 | 1 | 1.02 | 1.06 | 1.04
SW982 | 0.974 | 0.974 | 0.966 | 0.987 | 0.976 | 0.971 | 0.961 | 0.977 | 0.962 | 0.966
VA-ES-BJ | 0.961 | 0.962 | 0.974 | 0.984 | 0.945 | 0.964 | 0.981 | 0.985 | 0.978 | 0.95

O=C(Nc1nc2cccc(-c3ccc(CN4CCS(=O)(=O)CC4)cc3)n2n1)C1CC1 [Filgotinib]
relative viability
Settings | A204 | MES-SA | SK-ES-1 | SW982 | VA-ES-BJ
0.00017 µM | 1.09 | 0.977 | 1.02 | 1 | 1.05
0.00051 µM | 1.15 | 0.964 | 1.06 | 1.04 | 1.05
0.00152 µM | 1.07 | 0.943 | 1.07 | 1.06 | 1.05
0.00457 µM | 1.068 | 0.965 | 1.04 | 1.08 | 1.01
0.01372 µM | 1.06 | 0.949 | 1.06 | 1.05 | 1.01
0.04115 µM | 1.14 | 0.953 | 1.07 | 1.06 | 0.997
0.1235 µM | 1.13 | 0.957 | 1.04 | 1.02 | 1.01
0.3704 µM | 1.1 | 0.935 | 1.03 | 1.06 | 1.01
1.111 µM | 1.12 | 0.94 | 1 | 1.02 | 0.976
3.333 µM | 1.14 | 0.923 | 1.05 | 1.06 | 0.954
10 µM | 0.974 | 0.736 | 0.8196 | 0.939 | 0.851

COc1cc(Nc2ncc(F)c(Nc3ccc4c(n3)N(COP(=O)(O)O)C(=O)C(C)(C)O4)n2)cc(OC)c1OC [Fostamatinib]
relative viability
Settings | A204 | MES-SA | SK-ES-1 | SW982 | VA-ES-BJ
0.00017 µM | 1.07 | 0.904 | 1.01 | 1.05 | 1.05
0.00051 µM | 1.08 | 0.94 | 1.04 | 1.05 | 1.06
0.00152 µM | 1.07 | 0.932 | 1.03 | 1.04 | 1.06
0.00457 µM | 1.07 | 0.921 | 1.049 | 1.06 | 1.04
0.01372 µM | 1.07 | 0.943 | 1.01 | 1.053 | 1.04
0.04115 µM | 1.02 | 0.931 | 0.986 | 1.02 | 1.06
0.1235 µM | 0.954 | 0.853 | 0.813 | 0.822 | 1.01
0.3704 µM | 0.763 | 0.768 | 0.602 | 0.66 | 0.888
1.111 µM | 0.494 | 0.861 | 0.831 | 0.507 | 0.727
3.333 µM | 0.236 | 0.332 | 0.292 | 0.216 | 0.366
10 µM | 0.07 | 0.043 | 0.0769 | 0.128 | 0.164
